Experimental data as given in PubChem BioAssay AID1845195 (Molecular Pharmacology Branch, DTP, NCI, 2023).

Tested on: 156681-154-R-J1 tumor spheroid viability
Experiment: Anticancer human tumor 156681-154-R-J1 patient-derived melanoma cell line growth inhibition
Details: spheroids with HUVEC and MSC; for IC50: curve of first compound; for viability, T/C: stronger effect = lower value
Summary of the method: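 Complex tumor spheroids combined malignant cells with endothelial cells and mesenchymal stem cells. DNA-damaging drugs and DNA repair inhibitors were tested alone and in combination, at half-log dilutions down from clinical Cmax (top 10 microM if Cmax unknown), 0.25% DMSO final.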
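Further: spheroids exposed to compounds for 7 days before readout.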
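Wherever viability, T/C is given: percent of vehicle control viability where 100% = DMSO-treated spheroids.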

CC1COCCN1c1cc(-c2ccnn2C)c2ccnc(-c3ccn[nH]3)c2n1 (stereo not given) + CC[C@@]1(O)C(=O)OCc2c1cc1n(c2=O)Cc2cc3c(CN(C)C)c(O)ccc3nc2-1
IC50 (second compound 0.003 µM): 175 nM
IC50 (second compound 0.00949 µM): 194 nM
IC50 (second compound 0.03 µM): 52.4 nM
IC50 (second compound 0.0949 µM): < 31.6 nM
IC50 (second compound 0.3 µM): < 31.6 nM
viability, T/C (second compound 0.003 µM, first compound 0.0316 µM): 83.5%
viability, T/C (second compound 0.003 µM, first compound 0.1 µM): 62.5%
viability, T/C (second compound 0.003 µM, first compound 0.316 µM): 36.7%
viability, T/C (second compound 0.003 µM, first compound 1 µM): 27.1%
viability, T/C (second compound 0.003 µM, first compound 3.16 µM): 26.7%
viability, T/C (second compound 0.003 µM, first compound 10 µM): 23.9%
viability, T/C (second compound 0.00949 µM, first compound 0.0316 µM): 60.7%
viability, T/C (second compound 0.00949 µM, first compound 0.1 µM): 66.5%
viability, T/C (second compound 0.00949 µM, first compound 0.316 µM): 39.9%
viability, T/C (second compound 0.00949 µM, first compound 1 µM): 31.9%
viability, T/C (second compound 0.00949 µM, first compound 3.16 µM): 29.6%
viability, T/C (second compound 0.00949 µM, first compound 10 µM): 23.6%
viability, T/C (second compound 0.03 µM, first compound 0.0316 µM): 55.2%
viability, T/C (second compound 0.03 µM, first compound 0.1 µM): 44.8%
viability, T/C (second compound 0.03 µM, first compound 0.316 µM): 32.8%
viability, T/C (second compound 0.03 µM, first compound 1 µM): 28.5%
viability, T/C (second compound 0.03 µM, first compound 3.16 µM): 27.4%
viability, T/C (second compound 0.03 µM, first compound 10 µM): 23.5%
viability, T/C (second compound 0.0949 µM, first compound 0.0316 µM): 26.3%
viability, T/C (second compound 0.0949 µM, first compound 0.1 µM): 26.6%
viability, T/C (second compound 0.0949 µM, first compound 0.316 µM): 28.3%
viability, T/C (second compound 0.0949 µM, first compound 1 µM): 27.5%
viability, T/C (second compound 0.0949 µM, first compound 3.16 µM): 26.7%
viability, T/C (second compound 0.0949 µM, first compound 10 µM): 21.1%
viability, T/C (second compound 0.3 µM, first compound 0.0316 µM): 35.2%
viability, T/C (second compound 0.3 µM, first compound 0.1 µM): 34.3%
viability, T/C (second compound 0.3 µM, first compound 0.316 µM): 39.6%
viability, T/C (second compound 0.3 µM, first compound 1 µM): 37.2%
viability, T/C (second compound 0.3 µM, first compound 3.16 µM): 29.6%
viability, T/C (second compound 0.3 µM, first compound 10 µM): 27.6%
